Laboratory results published in patent publication US20140329832A1, “METABOLIC DEGRADATION INHIBITORS FOR ANTI-HYPERPROLIFERATIVE AGENTS” (CHILDRENS HOSPITAL LOS ANGELES, priority 2007, published 2014).

How the values were obtained:
[1] = Effect of various dosages of ketoconazole on fenretinide levels in mouse plasma (Example 3, HPLC); format: in vivo; settings: NOD/SCID mice; ketoconazole 37, 75 or 150 mg/kg/day, nine doses, starting two days prior to fenretinide 180 mg/kg/day, five doses; all dose levels, P<0.05
Excerpt: Animals were sacrificed four hours after the last drug dosing and levels of fenretinide measured in the blood plasma by a HPLC methodology.

[2] = nude mice bearing SMS-KCNR xenografts; ketoconazole 50 mg/kg/day, nine doses, starting two days prior to fenretinide 180 mg/kg/day, five doses
in vivo = settings: nude (nu/nu), mouse, 180 mg/kg/day
Protocol: The fluconazole dose approximately corresponded to a human equivalent dose of 100 mg/day for a 70 kg human. […] These doses are within the standard range of human treatment doses for both of these antifungal agents. Animals were sacrificed four hours after the last drug dosing and levels of fenretinide measured in the plasma by a HPLC methodology.

Row | effect on mean fenretinide level in plasma compared to controls [1] | effect on fenretinide levels in tumor tissue [2] | concentration at 4 h (in vivo) | SMILES
1 | significantly increased | increased |  | CC(=O)N1CCN(c2ccc(OCC3COC(Cn4ccnc4)(c4ccc(Cl)cc4Cl)O3)cc2)CC1 (stereo not drawn) [ketoconazole]
2 |  |  | 12.6 µM | CC1=C(/C=C/C(C)=C/C=C/C(C)=C/C(=O)Nc2ccc(O)cc2)C(C)(C)CCC1 [fenretinide, N-(4-hydrophenyl) retinamide]
